# Source: patent publication US11559527B2 (priority 2017, dated 2023)
# Columns and labels:
# Assay type in all cases: cell-based, Human
# MCF7 cells [1] = assay: PrestoBlue viability assay; details: 10 μM, 48 hours
# Description: The inventors sought to evaluate whether mDIVI-1-induced inhibition of DRP1 has repercussion on the viability of MCF7 cells. […] Similar results were obtained using the Bradford assay, which measures protein content, as an indicator of cell viability.
# CELL CULTURE: Human MCF7 breast cancer cells were purchased from ATCC and maintained in complete media: DMEM (D6546, Sigma) supplemented with 10% fetal bovine serum (F7524, Sigma), 100 units/ml of penicillin, 100 μg/ml, streptomycin (P0781, Sigma) and 1% Glutamax (#35050087, Life Technologies). For all experiments, cells were incubated in a 5% CO2 atmosphere at 37° C.
# PRESTOBLUE VIABILITY ASSAY: Cell viability was measured using the resazurin-based PrestoBlue reagent (A-13261, ThermoFisher Scientific). Briefly, 5×10^3 MCF7 cells were seeded into 96-well black plates. When cells were attached mDIVI-1 or vehicle were added to the cells. After 2 or 5 days, PrestoBlue reagent was added to the cells and incubated for 2 hours. Plates were finally read using a FluoStar Omega plate reader (BMG Labtech) at an excitation wavelength of 544 and an emission wavelength of 590 nm. Background measurements were subtracted from all values.
# MCF7 cells [2] = assay: Label-free quantitative proteomics; details: MCF7, 10 μM
# Description: Following protein digestion with trypsin, peptide fractions were processed on an LTQ-Orbitrap XL mass spectrometer. Those peptides identified were further analyzed to find proteomic changes between mDIVI-1-treated and vehicle-treated MCF7 cells, as described before. […] First, the inventors searched the proteomics datasets for changes in proteins involved in metabolism. […] That may possibly translate into a loss of antioxidant power, as the pentose phosphate pathway is a major source of NADPH.
# LABEL-FREE SEMI-QUANTITATIVE PROTEOMICS: Chemicals and sample preparation. Formic acid, trifluoroacetic acid, ammonium formate (10 M), ammonium bicarbonate TCEP (Tris (2-carboxyethyl)phosphine hydrochloride), MMTS (Methyl methanethiosulfonate) and trypsin were all obtained from Sigma. HPLC gradient grade acetonitrile was obtained from Fisher Scientific. Briefly, 2×10^6 MCF7 cells were seeded in 15 cm plates until cells were attached. […] As control, vehicle-treated cells were processed in parallel. After 48 hours of treatment, cells were lysed in RIPA buffer (R0278, Sigma) and kept at 4° C. for 20 minutes with rotation. Lysates were cleared by centrifugation for 10 minutes at 10,000×g and supernatants were collected and kept frozen at −80° C.
# PROTEIN DIGESTION: Lysate samples were thawed to room temperature and their concentrations equalized to 1 μg/μL (50 μL volume) with RIPA buffer, and further processed for trypsin digestion by sequential reduction of disulphide bonds with TCEP and alkylation with MMTS. Briefly, 1 μL benzonase (Novagen) was added to the 50 μL aliquot and placed on ice for 15 minutes. The sample was then taken to dryness using a SpeedVac, and resuspended in 22.5 μL trypsin reaction buffer (40 mM ammonium bicarbonate and 9% acetonitrile). One μL of 50 mM TCEP solution was added to each sample, mixed briefly and placed on a heater block at 60° C. for 60 minutes. After cooling to room temperature, 0.5 μL of 200 mM MMTS solution was added to each sample and allowed to react for 15 minutes. Trypsin was added in two waves to ensure efficient digestion of the sample. Firstly, 20 μg of sequencing grade trypsin was resuspended in 1800 μL of trypsin reaction buffer; 225 μL of this solution were added to each sample for digestion, and the reactions were left at 37° C. overnight with shaking (600 rpm). The following morning, a further aliquot of trypsin was added. Two ml of trypsin reaction buffer was added to 20 μL of sequencing grade trypsin; 250 μL of this solution were added to each of the digest samples from overnight, and the reactions were left at 37° C. for 4 hours with shaking (600 rpm). Thirty-five μL 10% formic acid were added to the 500 μL digest sample (0.7% final concentration of formic acid) to stop the digestion. The digested solution was diluted in 7.5 mL of acetonitrile containing 0.3% formic acid.
# HILIC solid phase extraction (SPE) of peptides. PolyhydroxyethylA SPE 12 μm, 300 A, 300 mg cartridges (obtained from PolyLC) were used for the HILIC procedure. Prior to use, cartridges required an overnight soak in 50 mM formic acid followed by rinsing with water the following day. Cartridges were preconditioned with 2 mL of Buffer A (90% acetonitrile, 5 mM ammonium formate, pH 2.7) followed by 2 mL of Buffer B (5 mM ammonium formate, pH 2.7) and finally re-equilibrated with 10 mL Buffer A. The diluted samples were loaded onto the cartridges and washed with a further 10 mL Buffer A. Finally, peptides were eluted in 1 mL Buffer C (9 parts Buffer B plus 1 part Buffer A) and the samples dried on a Speedvac to remove organic solvent prior to LC-MS/MS analysis.
# LC-MS/MS analysis. Lyophilised digests were resuspended in 50 μL of 0.1% TFA to give an approximate concentration of 1 μg/μL. One μL injection volumes were used throughout resulting in an on-column peptide loading of approximately 1 μg per injection. Analysis was performed in quintuplicate for each sample. […]
# MCF7 cells [3] = assay: Scratch assay (wound closure, migration); details: 48 hours, vs vehicle
# Description: It is though that CSCs are responsible for metastatic spread and growth. Emerging evidence highlights the role of mitochondrial dynamics in tumor cell dissemination. […] In migrating cancer cells mitochondria accumulate at the leading edge where processes requiring high energy occur, such as formation of focal adhesions. Fission seems to be a prerequisite for that efficient relocation of mitochondria. Indeed, upregulation/activation of DRP1 is associated with a migratory and invasive phenotype in cancer. […] Through a scratch assay, were cells were cultured in the presence of either vehicle or mDIVI-1. The scratch was monitored over time and the percentage of wound closure was measured as described previously.
# SCRATCH ASSAY: A hundred thousand MCF7 cells per well were seeded in 12-well plates. When cells were attached, a horizontal scratch was performed using the tip of a pipette. Immediately after, the media was removed and either fresh vehicle-containing media or mDIVI-1-containing media were added to the cells for 48 hours. Four replicates were used for each condition. […] The wound closure was monitored by taking pictures of each well every 4 hours. At the end of the treatment, pictures of the wells at 0 and 48 hours were analysed using ImageJ software to calculate wound closure according to the following formula: Percentage wound closure=[(wound area0 h−wound area48 h)/wound area0 h]×100.
structure (smiles),measurement,setting,value
"COc1cc(-n2c(S)nc3ccccc3c2=O)c(Cl)cc1Cl [mDIVI-1, 3-(2,4-Dichloro-5-methoxyphenyl)-2-sulfanyl-4(3H)-quinazolinone]",viability of MCF7 cells,MCF7 cells [1],did not decrease
same,Change in expression: Hexokinase 1 (HK1),"MCF7 cells [2]; Glycolysis, 48 hours",↓Infinite
same,BMP7 expression change (proteomics),MCF7 cells [2]; 48 hours vs vehicle,−47.17
same,CELSR2 expression change (proteomics),MCF7 cells [2]; 48 hours vs vehicle,−1.6
same,EPCAM expression change (proteomics),MCF7 cells [2]; 48 hours vs vehicle,−1.58
same,EphA2 expression change (proteomics),MCF7 cells [2]; 48 hours vs vehicle,−1.74
same,F11 receptor expression change (proteomics),MCF7 cells [2]; 48 hours vs vehicle,−1.70
same,"LAMP1 expression change, upregulated (proteomics)",MCF7 cells [2]; 48 hours vs vehicle,2.83
same,STAT3 expression change (proteomics),MCF7 cells [2]; 48 hours vs vehicle,−1.83
same,ZO-1 expression change (proteomics),MCF7 cells [2]; 48 hours vs vehicle,−1.62
same,collagen type IV upregulation (proteomics),MCF7 cells [2]; 48 hours vs vehicle,1.9 fold
same,desmoplakin expression change (proteomics),MCF7 cells [2]; 48 hours vs vehicle,−4.58
same,junction plakoglobin expression change (proteomics),MCF7 cells [2]; 48 hours vs vehicle,−1.65
same,keratin 8 expression change (proteomics),MCF7 cells [2]; 48 hours vs vehicle,−5.24
same,keratin 18 expression change (proteomics),MCF7 cells [2]; 48 hours vs vehicle,−12.21
same,reduction of percentage of wound closure,MCF7 cells [3]; 10 μM,14%
same,reduction of percentage of wound closure,MCF7 cells [3]; 50 μM,44%
